# Reference: PMC9133015 (Nature Communications, 2022)
# Where “and” joins values, the source holds several entries; their conditions need not be identical. Identical values can stand only once.
# Assays:
# Test in all cases: Kinase inhibitor specificity profiling (Reaction Biology Corporation)
# Assay type in all cases: biochemical
# Design in all cases: % Enzyme Activity (relative to DMSO controls): concentration or dose not given beside the values
# [1] = biological target: T1, panel of 370 protein kinases (Homo sapiens, UniProt O00444); conditions: 2 h, kinase PLK4/SAK; read-out: % Enzyme Activity (relative to DMSO controls)
# T1 construct: purchased Reaction Biology Corporation (assay service)
# [2] = biological target: T2, panel of 370 protein kinases (Homo sapiens, UniProt O75460); conditions: 2 h, kinase ERN1/IRE1; read-out: % Enzyme Activity (relative to DMSO controls)
# T2 construct: purchased Reaction Biology Corporation (assay service)
# [3] = biological target: T3, panel of 370 protein kinases (Homo sapiens, UniProt Q96GX5); conditions: kinase MASTL
# T3 construct: purchased Reaction Biology Corporation (assay service)
# [4] = biological target: T4, panel of 370 protein kinases (Homo sapiens, UniProt P31751); conditions: 2 h, kinase AKT2; read-out: % Enzyme Activity (relative to DMSO controls)
# T4 construct: purchased Reaction Biology Corporation (assay service)
# [5] = biological target: T5, panel of 370 protein kinases (Homo sapiens, UniProt Q9H1R3); conditions: 2 h, kinase MLCK2/MYLK2; read-out: % Enzyme Activity (relative to DMSO controls)
# T5 construct: purchased Reaction Biology Corporation (assay service)
# [6] = biological target: T6, panel of 370 protein kinases (Homo sapiens, UniProt Q8IVT5); conditions: 2 h, kinase KSR1; read-out: % Enzyme Activity (relative to DMSO controls)
# T6 construct: purchased Reaction Biology Corporation (assay service)
# [7] = biological target: T7, panel of 370 protein kinases (Homo sapiens, UniProt P53667); conditions: 2 h, kinase LIMK1; read-out: % Enzyme Activity (relative to DMSO controls)
# T7 construct: purchased Reaction Biology Corporation (assay service)
# [8] = biological target: T8, panel of 370 protein kinases (Homo sapiens, UniProt O15075); conditions: kinase DCAMKL1
# T8 construct: purchased Reaction Biology Corporation (assay service)
# [9] = biological target: T9, panel of 370 protein kinases (Homo sapiens, UniProt P31749); conditions: 2 h, kinase AKT1; read-out: % Enzyme Activity (relative to DMSO controls)
# T9 construct: purchased Reaction Biology Corporation (assay service)
# [10] = biological target: T10, panel of 370 protein kinases (Homo sapiens, UniProt Q96GD4); conditions: 2 h, kinase AURORA B; read-out: % Enzyme Activity (relative to DMSO controls)
# T10 construct: purchased Reaction Biology Corporation (assay service)
# [11] = biological target: T11, panel of 370 protein kinases (Homo sapiens, UniProt P34947); conditions: 2 h, kinase GRK5; read-out: % Enzyme Activity (relative to DMSO controls)
# T11 construct: purchased Reaction Biology Corporation (assay service)
# [12] = biological target: T12, panel of 370 protein kinases (Homo sapiens, UniProt P45984); conditions: kinase JNK2
# T12 construct: purchased Reaction Biology Corporation (assay service)
# [13] = biological target: T13, panel of 370 protein kinases (Homo sapiens, UniProt Q96PY6); conditions: 2 h, kinase NEK1; read-out: % Enzyme Activity (relative to DMSO controls)
# T13 construct: purchased Reaction Biology Corporation (assay service)
# [14] = biological target: T14, panel of 370 protein kinases (Homo sapiens, UniProt Q02750); conditions: 2 h, kinase MEK1; read-out: % Enzyme Activity (relative to DMSO controls)
# T14 construct: purchased Reaction Biology Corporation (assay service)
# [15] = biological target: T15, panel of 370 protein kinases (Homo sapiens, UniProt P21709); conditions: 2 h, kinase EPHA1; read-out: % Enzyme Activity (relative to DMSO controls)
# T15 construct: purchased Reaction Biology Corporation (assay service)
# [16] = biological target: T16, panel of 370 protein kinases (Homo sapiens, UniProt Q96S53); conditions: 2 h, kinase TESK2; read-out: % Enzyme Activity (relative to DMSO controls)
# T16 construct: purchased Reaction Biology Corporation (assay service)
# [17] = biological target: T17, panel of 370 protein kinases (Homo sapiens, UniProt P06239); conditions: 2 h, kinase LCK; read-out: % Enzyme Activity (relative to DMSO controls)
# T17 construct: purchased Reaction Biology Corporation (assay service)
# [18] = biological target: T18, panel of 370 protein kinases (Homo sapiens, UniProt P27448); conditions: 2 h, kinase MARK3; read-out: % Enzyme Activity (relative to DMSO controls)
# T18 construct: purchased Reaction Biology Corporation (assay service)
# [19] = biological target: T19, panel of 370 protein kinases (Homo sapiens, UniProt Q9UEE5); conditions: 2 h, kinase DRAK1/STK17A; read-out: % Enzyme Activity (relative to DMSO controls)
# T19 construct: purchased Reaction Biology Corporation (assay service)
# [20] = biological target: T20, panel of 370 protein kinases (Homo sapiens, UniProt Q16816); conditions: 2 h, kinase PHKg1; read-out: % Enzyme Activity (relative to DMSO controls)
# T20 construct: purchased Reaction Biology Corporation (assay service)
# [21] = biological target: T21, panel of 370 protein kinases (Homo sapiens, UniProt P42680); conditions: 2 h, kinase TEC; read-out: % Enzyme Activity (relative to DMSO controls)
# T21 construct: purchased Reaction Biology Corporation (assay service)
# [22] = biological target: T22, panel of 370 protein kinases (Homo sapiens, UniProt Q9UKE5); conditions: 2 h, kinase TNIK; read-out: % Enzyme Activity (relative to DMSO controls)
# T22 construct: purchased Reaction Biology Corporation (assay service)
# T3 sequence (Q96GX5 whole entry): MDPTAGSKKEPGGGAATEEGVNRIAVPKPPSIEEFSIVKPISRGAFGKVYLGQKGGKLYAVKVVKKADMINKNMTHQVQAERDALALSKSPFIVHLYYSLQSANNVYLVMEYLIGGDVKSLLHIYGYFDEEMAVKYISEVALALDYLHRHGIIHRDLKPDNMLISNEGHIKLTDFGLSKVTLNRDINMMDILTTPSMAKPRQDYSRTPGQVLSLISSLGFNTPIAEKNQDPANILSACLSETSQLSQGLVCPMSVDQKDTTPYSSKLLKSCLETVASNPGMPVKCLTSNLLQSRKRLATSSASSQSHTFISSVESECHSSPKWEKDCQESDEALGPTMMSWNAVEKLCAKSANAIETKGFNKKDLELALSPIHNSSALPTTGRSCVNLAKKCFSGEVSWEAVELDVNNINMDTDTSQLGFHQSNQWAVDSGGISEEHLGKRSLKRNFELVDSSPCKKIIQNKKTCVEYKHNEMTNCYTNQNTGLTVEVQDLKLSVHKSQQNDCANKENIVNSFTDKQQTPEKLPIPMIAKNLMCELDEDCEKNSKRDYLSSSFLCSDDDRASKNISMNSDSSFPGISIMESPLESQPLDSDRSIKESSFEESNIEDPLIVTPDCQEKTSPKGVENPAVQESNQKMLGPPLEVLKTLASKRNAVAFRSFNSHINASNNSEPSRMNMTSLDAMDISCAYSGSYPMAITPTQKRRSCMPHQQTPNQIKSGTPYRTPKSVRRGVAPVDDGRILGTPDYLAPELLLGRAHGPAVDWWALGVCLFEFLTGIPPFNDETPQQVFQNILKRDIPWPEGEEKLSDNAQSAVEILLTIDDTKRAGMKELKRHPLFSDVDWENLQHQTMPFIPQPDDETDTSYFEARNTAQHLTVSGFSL
# T8 sequence (O15075 whole entry): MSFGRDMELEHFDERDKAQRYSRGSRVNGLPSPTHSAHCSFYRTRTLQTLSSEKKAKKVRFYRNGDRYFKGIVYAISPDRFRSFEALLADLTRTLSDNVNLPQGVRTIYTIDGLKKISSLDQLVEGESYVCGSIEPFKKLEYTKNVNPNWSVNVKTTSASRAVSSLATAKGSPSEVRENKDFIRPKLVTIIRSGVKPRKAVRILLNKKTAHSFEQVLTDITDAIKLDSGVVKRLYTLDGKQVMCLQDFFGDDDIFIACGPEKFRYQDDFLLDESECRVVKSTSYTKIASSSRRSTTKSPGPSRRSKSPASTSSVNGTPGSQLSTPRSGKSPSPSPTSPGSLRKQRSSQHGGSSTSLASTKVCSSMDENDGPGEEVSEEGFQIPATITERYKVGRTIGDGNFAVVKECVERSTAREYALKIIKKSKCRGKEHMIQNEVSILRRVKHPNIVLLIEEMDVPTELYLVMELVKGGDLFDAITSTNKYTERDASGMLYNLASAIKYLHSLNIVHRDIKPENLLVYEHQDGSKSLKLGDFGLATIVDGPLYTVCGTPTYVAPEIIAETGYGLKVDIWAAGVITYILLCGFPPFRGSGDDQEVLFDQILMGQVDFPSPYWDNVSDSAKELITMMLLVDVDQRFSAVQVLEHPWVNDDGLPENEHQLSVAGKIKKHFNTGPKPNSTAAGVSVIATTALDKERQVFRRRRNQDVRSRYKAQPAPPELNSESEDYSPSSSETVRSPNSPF
# T12 sequence (P45984 whole entry): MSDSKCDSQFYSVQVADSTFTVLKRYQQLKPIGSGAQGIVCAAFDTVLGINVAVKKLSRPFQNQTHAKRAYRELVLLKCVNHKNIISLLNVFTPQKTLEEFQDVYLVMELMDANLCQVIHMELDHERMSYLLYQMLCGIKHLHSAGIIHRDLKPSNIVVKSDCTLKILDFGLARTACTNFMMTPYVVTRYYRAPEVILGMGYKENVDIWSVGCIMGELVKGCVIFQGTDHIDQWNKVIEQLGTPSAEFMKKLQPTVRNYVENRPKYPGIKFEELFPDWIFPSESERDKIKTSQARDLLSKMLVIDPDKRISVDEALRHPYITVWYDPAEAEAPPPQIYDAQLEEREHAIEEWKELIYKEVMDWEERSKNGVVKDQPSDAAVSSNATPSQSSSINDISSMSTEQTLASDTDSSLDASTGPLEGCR
# T1 sequence (O00444 whole entry): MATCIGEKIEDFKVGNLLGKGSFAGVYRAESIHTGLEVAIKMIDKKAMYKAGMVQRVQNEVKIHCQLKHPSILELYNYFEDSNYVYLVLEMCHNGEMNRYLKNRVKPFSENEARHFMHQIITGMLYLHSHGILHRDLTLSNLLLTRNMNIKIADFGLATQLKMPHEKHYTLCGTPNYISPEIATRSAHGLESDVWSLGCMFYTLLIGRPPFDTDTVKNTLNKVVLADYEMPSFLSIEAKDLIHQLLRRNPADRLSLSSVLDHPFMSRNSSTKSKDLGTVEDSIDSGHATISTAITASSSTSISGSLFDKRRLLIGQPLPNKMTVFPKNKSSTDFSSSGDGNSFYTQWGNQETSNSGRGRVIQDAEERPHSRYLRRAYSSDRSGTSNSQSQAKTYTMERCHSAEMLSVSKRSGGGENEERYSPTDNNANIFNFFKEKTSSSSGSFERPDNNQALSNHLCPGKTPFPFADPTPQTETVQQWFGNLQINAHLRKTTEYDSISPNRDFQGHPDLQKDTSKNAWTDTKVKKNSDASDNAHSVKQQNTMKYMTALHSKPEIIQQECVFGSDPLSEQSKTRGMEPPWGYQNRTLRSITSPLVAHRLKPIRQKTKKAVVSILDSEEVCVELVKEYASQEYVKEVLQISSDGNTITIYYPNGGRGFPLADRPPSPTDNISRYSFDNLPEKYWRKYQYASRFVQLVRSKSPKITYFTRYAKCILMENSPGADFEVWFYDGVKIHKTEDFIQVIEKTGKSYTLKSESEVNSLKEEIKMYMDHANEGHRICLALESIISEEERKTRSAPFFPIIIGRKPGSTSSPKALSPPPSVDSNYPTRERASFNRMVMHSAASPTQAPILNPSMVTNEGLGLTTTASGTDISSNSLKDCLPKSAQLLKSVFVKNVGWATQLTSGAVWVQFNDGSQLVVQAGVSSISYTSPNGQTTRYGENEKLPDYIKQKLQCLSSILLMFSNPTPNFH
# T19 sequence (Q9UEE5 whole entry): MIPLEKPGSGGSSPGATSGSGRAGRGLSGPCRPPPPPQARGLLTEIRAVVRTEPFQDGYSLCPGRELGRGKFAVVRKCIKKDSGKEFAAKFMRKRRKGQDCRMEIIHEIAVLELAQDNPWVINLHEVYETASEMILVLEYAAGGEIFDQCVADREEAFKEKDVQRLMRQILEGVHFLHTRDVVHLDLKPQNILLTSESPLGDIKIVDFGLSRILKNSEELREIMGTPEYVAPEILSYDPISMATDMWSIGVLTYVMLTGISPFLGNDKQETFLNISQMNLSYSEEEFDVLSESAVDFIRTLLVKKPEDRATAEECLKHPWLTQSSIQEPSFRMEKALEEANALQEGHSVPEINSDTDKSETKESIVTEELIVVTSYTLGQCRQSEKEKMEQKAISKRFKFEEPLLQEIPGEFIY
# T9 sequence (P31749 whole entry): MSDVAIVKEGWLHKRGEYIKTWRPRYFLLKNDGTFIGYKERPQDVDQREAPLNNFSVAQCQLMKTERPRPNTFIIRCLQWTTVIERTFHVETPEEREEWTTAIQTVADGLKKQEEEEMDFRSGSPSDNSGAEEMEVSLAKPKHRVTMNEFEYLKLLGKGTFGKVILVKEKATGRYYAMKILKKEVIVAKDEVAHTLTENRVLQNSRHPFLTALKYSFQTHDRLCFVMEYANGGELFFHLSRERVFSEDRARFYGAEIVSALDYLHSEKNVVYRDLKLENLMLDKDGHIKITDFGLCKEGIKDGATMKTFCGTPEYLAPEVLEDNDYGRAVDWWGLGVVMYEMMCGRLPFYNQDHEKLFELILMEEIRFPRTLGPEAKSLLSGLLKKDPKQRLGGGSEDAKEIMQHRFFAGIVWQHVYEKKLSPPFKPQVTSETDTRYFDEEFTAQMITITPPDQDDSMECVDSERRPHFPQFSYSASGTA
# T21 sequence (P42680 whole entry): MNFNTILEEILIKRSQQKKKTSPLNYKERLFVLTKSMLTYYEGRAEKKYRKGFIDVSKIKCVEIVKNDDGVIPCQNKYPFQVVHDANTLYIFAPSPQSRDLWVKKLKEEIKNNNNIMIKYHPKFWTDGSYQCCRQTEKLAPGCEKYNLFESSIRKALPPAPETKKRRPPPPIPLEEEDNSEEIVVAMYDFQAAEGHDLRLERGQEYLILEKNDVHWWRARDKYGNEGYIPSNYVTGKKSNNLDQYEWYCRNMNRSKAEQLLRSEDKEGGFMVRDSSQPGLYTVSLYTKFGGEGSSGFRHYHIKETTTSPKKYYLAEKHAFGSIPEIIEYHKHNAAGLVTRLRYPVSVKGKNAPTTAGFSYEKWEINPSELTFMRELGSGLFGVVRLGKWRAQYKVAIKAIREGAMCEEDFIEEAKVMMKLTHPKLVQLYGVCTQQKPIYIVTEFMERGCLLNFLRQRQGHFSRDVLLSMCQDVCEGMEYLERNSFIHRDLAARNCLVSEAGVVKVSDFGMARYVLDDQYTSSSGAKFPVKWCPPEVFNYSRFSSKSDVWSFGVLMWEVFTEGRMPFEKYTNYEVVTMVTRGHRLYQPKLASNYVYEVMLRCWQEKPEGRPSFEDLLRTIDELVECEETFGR
# T4 sequence (P31751 whole entry): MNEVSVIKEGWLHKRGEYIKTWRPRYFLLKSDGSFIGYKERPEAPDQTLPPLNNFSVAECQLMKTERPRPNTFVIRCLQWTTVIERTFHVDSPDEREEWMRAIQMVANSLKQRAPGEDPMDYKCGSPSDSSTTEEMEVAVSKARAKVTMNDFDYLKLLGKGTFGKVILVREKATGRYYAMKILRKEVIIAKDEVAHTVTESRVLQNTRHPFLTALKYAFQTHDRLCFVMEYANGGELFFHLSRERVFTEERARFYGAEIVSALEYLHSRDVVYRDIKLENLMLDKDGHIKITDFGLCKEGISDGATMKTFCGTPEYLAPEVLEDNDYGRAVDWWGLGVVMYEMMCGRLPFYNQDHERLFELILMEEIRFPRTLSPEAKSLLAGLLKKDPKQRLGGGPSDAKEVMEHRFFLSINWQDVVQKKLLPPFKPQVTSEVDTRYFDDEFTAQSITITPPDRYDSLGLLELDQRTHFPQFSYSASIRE
smiles,measurement,setting,value
CCN1CCN(C(=O)c2ccc(Nc3ncc(F)c(-c4ccc5nc(N(C)C)sc5c4)n3)nc2)CC1 [YK-2-69],remaining activity at 1 µM,[1],72.6%
same,remaining activity at 1 µM,[2],89.3%
same,% Enzyme Activity (relative to DMSO controls),[3],100.08% and 99.24%
same,remaining activity at 1 µM,[4],98.6%
same,remaining activity at 1 µM,[5],78.7%
same,remaining activity at 1 µM,[6],94.3%
same,remaining activity at 1 µM,[7],95.7%
same,% Enzyme Activity (relative to DMSO controls),[8],112.23% and 104.96%
same,remaining activity at 1 µM,[9],98.3%
same,remaining activity at 1 µM,[10],94.5%
same,remaining activity at 1 µM,[11],106%
same,% Enzyme Activity (relative to DMSO controls),[12],83.83% and 82.64%
same,remaining activity at 1 µM,[13],69.2%
same,remaining activity at 1 µM,[14],100%
same,remaining activity at 1 µM,[15],109%
same,remaining activity at 1 µM,[16],98.2%
same,remaining activity at 1 µM,[17],101%
same,remaining activity at 1 µM,[18],103%
same,remaining activity at 1 µM,[19],59%
same,remaining activity at 1 µM,[20],89.4%
same,remaining activity at 1 µM,[21],107%
same,remaining activity at 1 µM,[22],70.5%
